Data taken from patent publication US9487479B2, “Small molecule inhibitors of N-terminus activation of the androgen receptor” (The University of British Columbia, priority 2008, dated 2016).

How the values were obtained:
LNCaP xenografts = test: LNCaP subcutaneous xenograft model in castrated NOD-SCID mice; format: in vivo; settings: intratumoral 30 mg/kg every 3 days
Protocol: CB3.1 reduced the size of the tumors while DMSO-treated tumors continued to grow. Animals were castrated 7 days before 1st injection and tumor volume was set to 100%. Injections were made every 3 days at a dose of 30 mg/kg body weight every 3 days. B. Photograph is of a representative harvested LNCaP xenograft treated with CB3.1. The black bar represents 10 mm.
Six to eight-week old male athymic SCID mice were inoculated subcutaneously in the flank region via a 27-gauge needle with a 150 μl suspension of LNCaP or PC3 human prostate cancer cells (1×10^6 cells). The inoculations took place while the animal was under isofluorane anaesthesia. The tumor take rate is approximately 75%. Mice bearing tumors of 100 mm^3 were randomly assigned to treatment groups. Castration was performed as described below. Tumor volume (formula: L×W×H×0.5236) was measured in mice bearing LNCaP subcutaneous tumors that became palpable or visible and at least 40 mm^3. The animals were monitored daily and tumors were measured every 5 days.
Androgen withdrawal was completed by castration. Under isoflurane anaesthesia, a 5 mm vertical incision was used to gently withdraw the epididymal fat pad, to which the testis were attached, and to remove the testis from body. The cord connecting the testis to the blood supply was ligated with a suture, then cut. The cord was then returned to the abdominal cavity. Surgical suture was used to close the incision. To relieve pain, buprenorphine (0.05 mg/kg) was injected prior to surgery.
The subcutaneous xenograft model was used to test whether sintokamides that inhibit activation of the androgen receptor in vitro have any effect on these tumors. CB3.1 was tested in vivo using the LNCaP subcutaneous xenograft model. […] LNCaP human prostate cancer cells express endogenous androgen receptor (AR) and prostate-specific antigen (PSA), and progress to androgen independence in castrated hosts. LNCaP cells (10^6/ml) were implanted subcutaneously into NOD-SCID male mice that were at least 8 weeks in age. […]

[1] = target: T1, glucocorticoid receptor (GR) (Homo sapiens, UniProt P04150); test: GRE-luciferase reporter assay in LNCaP cells transfected with hGR; format: cell-based; settings: 5 μg/ml, dexamethasone 10 nM, 24 h
T1 construct: Cells were co-transfected with expression plasmids for full-length hGR and PRβ; expressed in transfected cells; host or cells: LNCaP cells
T1 sequence (P04150 1-777): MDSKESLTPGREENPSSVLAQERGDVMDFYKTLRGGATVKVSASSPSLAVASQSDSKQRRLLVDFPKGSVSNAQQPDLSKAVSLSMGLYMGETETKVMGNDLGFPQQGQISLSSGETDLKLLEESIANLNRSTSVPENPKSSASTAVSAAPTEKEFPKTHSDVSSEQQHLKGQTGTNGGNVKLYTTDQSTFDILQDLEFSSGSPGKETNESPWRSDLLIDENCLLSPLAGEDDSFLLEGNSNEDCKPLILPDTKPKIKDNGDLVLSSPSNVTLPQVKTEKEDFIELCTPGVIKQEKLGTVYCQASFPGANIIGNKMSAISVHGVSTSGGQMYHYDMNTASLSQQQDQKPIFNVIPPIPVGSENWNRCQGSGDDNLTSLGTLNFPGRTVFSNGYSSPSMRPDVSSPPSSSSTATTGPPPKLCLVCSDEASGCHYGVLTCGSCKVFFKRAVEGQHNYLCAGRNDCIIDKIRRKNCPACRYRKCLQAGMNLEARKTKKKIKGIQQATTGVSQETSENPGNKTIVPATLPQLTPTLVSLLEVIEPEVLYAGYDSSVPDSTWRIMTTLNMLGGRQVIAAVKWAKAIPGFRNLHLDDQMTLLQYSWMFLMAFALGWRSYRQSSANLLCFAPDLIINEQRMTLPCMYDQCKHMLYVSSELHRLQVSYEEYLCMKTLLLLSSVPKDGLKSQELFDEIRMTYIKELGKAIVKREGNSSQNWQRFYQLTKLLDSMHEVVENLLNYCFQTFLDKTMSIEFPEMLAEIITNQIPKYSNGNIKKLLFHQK
Description: White bars represent no steroid (ethanol control). Wherein glucocorticoid receptor (GR) and progesterone receptor (PR).
Sequence similarities of amino acids in the AR with related human steroid receptors (glucocorticoid receptor (GR) and progesterone receptor (PR)) are significant in some domains such as the DNA-binding-domain (DBD). Although the AR-NTD shares less than 15% homology with the PR and GR, these receptors do interact with some of the same proteins such as SRC-1 (steroid receptor coactivator-1). Therefore, reporter gene assays were used to determine if candidate compounds that block AR activity have any effect on GR and PR transcriptional activity. Cells were co-transfected with expression plasmids for full-length hGR and PRβ and the relative reporter (i.e., pGR-Luc or PRE-E1b-Luc reporters). Cells were then treated with ethanol vehicle, dexamethasone (GR), 4-pregnene-3,20 dione (progesterone) (PR) followed by measurement of luciferase activity.

CCC(=O)N[C@H](C[C@H](C)C(Cl)(Cl)Cl)C(=O)N1C(=O)C=C(OC)[C@@H]1C[C@H](C)C(Cl)Cl [CB3.1, Sintokamide A]
tumor volume relative to the tumor volume on the day of the 1st injection (LNCaP xenografts; 15 days after first injection, castrated mice): 111.81%±38.12 | serum PSA (LNCaP xenografts; day 15 after the 1st injection): 98.47%±170.51 | effect on tumor volume (LNCaP xenografts; castrated mice): showed a reduction of tumor volume | GRE-luciferase activity in response to ligand [1]: did not inhibit
